# Earlier results as cited in patent US8524697B2, “C20-C21 substituted glucocorticoid receptor agonists” (Merck Sharp & Dohme Corp., priority 2007, dated 2013).
# Molecular target: SYK kinase (Homo sapiens, UniProt P43405)
# Conditions: symptoms associated with chronic nasal congestion
smiles,measurement,value
Oc1cccc(Nc2ncc(F)c(Nc3cccc(O)c3)n2)c1 [Example R112],absolute difference over placebo,9%
same,improvement from baseline measurements (prior to drug initiation),up to 38%
same,relative improvement over placebo,greater than 20%
